According to patent US6551615B1, “Dexibuprofen-containing soft gelatin capsules and process for preparing the same” (M/s. Strides Arcolab Limited, priority 2001, dated 2003):

Columns and labels:
[1] = Compatibility of dexibuprofen with glycerin plasticizer; type: physicochemical; settings: in some instances
Source text: In general, gelatin capsule formulations for soft gelatin capsules comprise raw gelatin and one or more plasticizers added to adjust the hardness of the capsule. Typical plasticizers include glycerin, sorbitol and Anidrisorb 85/70. A preferred plasticizer is Anidrisorb 85/70, an aqueous solution of D-sorbitol and sorbitans. […] One preferred gelatin formulation for the soft gelatin capsules used in accordance with preferred embodiments includes gelatin in the range of about 40% to 48% and a plasticizer ranging in amount from about 20% to 35%. Another preferred plasticizer is sorbitol BP, a non-crystallizing sorbitol solution. When either a 70%, non-crystallizing sorbitol solution or Anidrisorb 85/70 are used alone, the amount of plasticizer used preferaby ranges from about 25% to 35%. Capsule formulations can also include other suitable additives, for example coloring agents, which impart specific characteristics such as the look and feel of the capsule. FD&C dyes and D & C dyes are examples of pharmaceutically acceptable coloring agents that may be used in preferred embodiments.

[2] = cited from earlier work

SMILES: CC(C)Cc1ccc([C@H](C)C(=O)O)cc1 [Dexibuprofen, (S)-(+)-2-(4-isobutylphenyl)propionic acid]
- Reaction with glycerin (plasticizer of the capsule shell) [1]: forming unwanted glycerol esters of dexibuprofen
- Solubility in acetone ([2]; acetone): freely soluble
- Solubility in aqueous solutions of alkali hydroxides and carbonates ([2]; aqueous solutions of alkali hydroxides and carbonates): soluble
- Solubility in methanol ([2]; methanol): freely soluble
- Solubility in methylene chloride ([2]; methylene chloride): freely soluble
- Solubility in most organic solvents ([2]; most organic solvents): readily soluble
- Solubility in water ([2]; water): practically insoluble
